Test results published in patent US8748415B2 (priority 2011, dated 2014).

The compounds below were run on recombinant NL4-3 virus (Renilla luciferase in nef, Gag P373S) (assay: HIV cell culture assay (luciferase activity in MT-2 cells infected with NLRluc recombinant virus)). Details: NL43, MT-2 cells infected 4-5 days with NLRluc recombinant virus, class symbol.
Type: cell-based
Method in brief: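 MT-2 cells in RPMI/10% FBS were infected with recombinant NL4-3 (NLRluc), produced by 293T transfection and titered in MT-2 by luciferase. Serial inhibitor dilutions were present throughout a 4–5 day infection. Antiviral activity was quantified as Renilla luciferase signal via a modified Dual Luciferase read.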

| SMILES | EC50 [nM] |
| --- | --- |
| C=C(C)[C@@H]1CC[C@]2(CNC(=O)OCCCN3CCS(=O)(=O)CC3)CC[C@]3(C)[C@H](CC[C@@H]4[C@@]5(C)CC=C(c6ccc(C(=O)O)cc6)C(C)(C)[C@@H]5CC[C@]43C)[C@@H]12 [Example 164, 4-((1R,3aS,5aR,5bR,7aR,11aS,11bR,13aR,13bR)-3a-((((3-(1,1-dioxido-4-thiomorpholinyl)propoxy)carbonyl)amino)methyl)-1-isopropenyl-5a,5b,8,8,11a-pentamethyl-2,3,3a,4,5,5a,5b,6,7,7a,8,11,11a,11b,12,13,13a,13b-octadecahydro-1H-cyclopenta[a]chrysen-9-yl)benzoic acid] | < 100 |
| C=C(C)[C@@H]1CC[C@]2(CNC(=O)OCCN3CCS(=O)(=O)CC3)CC[C@]3(C)[C@H](CC[C@@H]4[C@@]5(C)CC=C(c6ccc(C(=O)O)cc6)C(C)(C)[C@@H]5CC[C@]43C)[C@@H]12 [Example 165, 4-((1R,3aS,5aR,5bR,7aR,11aS,11bR,13aR,13bR)-3a-((((2-(1,1-dioxido-4-thiomorpholinyl)ethoxy)carbonyl)amino)methyl)-1-isopropenyl-5a,5b,8,8,11a-pentamethyl-2,3,3a,4,5,5a,5b,6,7,7a,8,11,11a,11b,12,13,13a,13b-octadecahydro-1H-cyclopenta[a]chrysen-9-yl)benzoic acid] | < 100 |
| C=C(C)[C@@H]1CC[C@]2(CNC(=O)OCCCN3CCCC3=O)CC[C@]3(C)[C@H](CC[C@@H]4[C@@]5(C)CC=C(c6ccc(C(=O)O)cc6)C(C)(C)[C@@H]5CC[C@]43C)[C@@H]12 [Example 166, 4-((1R,3aS,5aR,5bR,7aR,11aS,11bR,13aR,13bR)-5a,5b,8,8,11a-pentamethyl-3a-(((3-(2-oxopyrrolidin-1-yl)propoxy)carbonylamino)methyl)-1-(prop-1-en-2-yl)-2,3,3a,4,5,5a,5b,6,7,7a,8,11,11a,11b,12,13,13a,13b-octadecahydro-1H-cyclopenta[a]chrysen-9-yl)benzoic acid] | < 100 |
| C=C(C)[C@@H]1CC[C@]2(CNS(=O)(=O)c3ccc(C(=O)O)cc3)CC[C@]3(C)[C@H](CC[C@@H]4[C@@]5(C)CC=C(c6ccc(C(=O)O)cc6)C(C)(C)[C@@H]5CC[C@]43C)[C@@H]12 [Example 167, 4-(N—(((1R,3aS,5aR,5bR,7aR,11aS,11bR,13aR,13bR)-9-(4-carboxyphenyl)-5a,5b,8,8,11a-pentamethyl-1-(prop-1-en-2-yl)-2,3,3a,4,5,5a,5b,6,7,7a,8,11,11a,11b,12,13,13a,13b-octadecahydro-1H-cyclopenta[a]chrysen-3a-yl)methyl)sulfamoyl)benzoic acid] | < 100 |
| C=C(C)[C@@H]1CC[C@]2(CN3CCS(=O)(=O)CC3)CC[C@]3(C)[C@H](CC[C@@H]4[C@@]5(C)CC=C(c6ccc(C(=O)O)cc6)C(C)(C)[C@@H]5CC[C@]43C)[C@@H]12 [Example 168, 4-((1R,3aS,5aR,5bR,7aR,11aS,11bR,13aR,13bR)-3a-((1,1-dioxido-4-thiomorpholinyl)methyl)-1-isopropenyl-5a,5b,8,8,11a-pentamethyl-2,3,3a,4,5,5a,5b,6,7,7a,8,11,11a,11b,12,13,13a,13b-octadecahydro-1H-cyclopenta[a]chrysen-9-yl)benzoic acid] | < 100 |
| C=C(C)[C@@H]1CC[C@]2(CNC(=O)CCC(=O)O)CC[C@]3(C)[C@H](CC[C@@H]4[C@@]5(C)CC=C(c6ccc(C(=O)O)cc6)C(C)(C)[C@@H]5CC[C@]43C)[C@@H]12 [Example 169, 4-((1R,3aS,5aR,5bR,7aR,11aS,11bR,13aR,13bR)-3a-((3-carboxypropanamido)methyl)-5a,5b,8,8,11a-pentamethyl-1-(prop-1-en-2-yl)-2,3,3a,4,5,5a,5b,6,7,7a,8,11,11a,11b,12,13,13a,13b-octadecahydro-1H-cyclopenta[a]chrysen-9-yl)benzoic acid] | < 100 |
| C=C(C)[C@@H]1CC[C@]2(CNC(=O)CCC(=O)OC)CC[C@]3(C)[C@H](CC[C@@H]4[C@@]5(C)CC=C(c6ccc(C(=O)O)cc6)C(C)(C)[C@@H]5CC[C@]43C)[C@@H]12 [Example 170, 4-((1R,3aS,5aR,5bR,7aR,11aS,11bR,13aR,13bR)-3a-((4-methoxy-4-oxobutanamido)methyl)-5a,5b,8,8,11a-pentamethyl-1-(prop-1-en-2-yl)-2,3,3a,4,5,5a,5b,6,7,7a,8,11,11a,11b,12,13,13a,13b-octadecahydro-1H-cyclopenta[a]chrysen-9-yl)benzoic acid] | < 100 |
| C=C(C)[C@@H]1CC[C@]2(CNCCCN3CCS(=O)(=O)CC3)CC[C@]3(C)[C@H](CC[C@@H]4[C@@]5(C)CC=C(c6ccc(C(=O)NS(=O)(=O)N(C)C)cc6)C(C)(C)[C@@H]5CC[C@]43C)[C@@H]12 [Example 171, N-(dimethylsulfamoyl)-4-((1R,3aS,5aR,5bR,7aR,11aS,11bR,13aR,13bR)-3a-(((3-(1,1-dioxido-4-thiomorpholinyl)propyl)amino)methyl)-1-isopropenyl-5a,5b,8,8,11a-pentamethyl-2,3,3a,4,5,5a,5b,6,7,7a,8,11,11a,11b,12,13,13a,13b-octadecahydro-1H-cyclopenta[a]chrysen-9-yl)benzamide] | < 100 |
| C=C(C)[C@@H]1CC[C@]2(CNCCCN3CCS(=O)(=O)CC3)CC[C@]3(C)[C@H](CC[C@@H]4[C@@]5(C)CC=C(c6ccc(C(=O)NS(=O)(=O)C7CC7)cc6)C(C)(C)[C@@H]5CC[C@]43C)[C@@H]12 [Example 172, benzamide, N-(cyclopropylsulfonyl)-4-((1R,3aS,5aR,5bR,7aR,11aS,11bR,13aR,13bR)-3a-(((3-(1,1-dioxido-4-thiomorpholinyl)propyl)amino)methyl)-1-isopropenyl-5a,5b,8,8,11a-pentamethyl-2,3,3a,4,5,5a,5b,6,7,7a,8,11,11a,11b,12,13,13a,13b-octadecahydro-1H-cyclopenta[a]chrysen-9-yl)benzamide] | < 100 |
| C=C(C)[C@@H]1CC[C@]2(CN(CCCN3CCS(=O)(=O)CC3)C(=O)CCC(=O)NS(=O)(=O)C3CC3)CC[C@]3(C)[C@H](CC[C@@H]4[C@@]5(C)CC=C(c6ccc(C(=O)O)cc6)C(C)(C)[C@@H]5CC[C@]43C)[C@@H]12 [Example 173, 4-((1R,3aS,5aR,5bR,7aR,11aS,11bR,13aR,13bR)-3a-(((4-((cyclopropylsulfonyl)amino)-4-oxobutanoyl)(3-(1,1-dioxido-4-thiomorpholinyl)propyl)amino)methyl)-1-isopropenyl-5a,5b,8,8,11a-pentamethyl-2,3,3a,4,5,5a,5b,6,7,7a,8,11,11a,11b,12,13,13a,13b-octadecahydro-1H-cyclopenta[a]chrysen-9-yl)benzoic acid] | < 100 |
| C=C(C)[C@@H]1CC[C@]2(CN)CC[C@]3(C)[C@H](CC[C@@H]4[C@@]5(C)CC=C(c6ccc(C(=O)O)cc6)C(C)(C)[C@@H]5CC[C@]43C)[C@@H]12 [Example 174, 4-((1R,3aS,5aR,5bR,7aR,11aS,11bR,13aR,13bR)-3a-(aminomethyl)-5a,5b,8,8,11a-pentamethyl-1-(prop-1-en-2-yl)-2,3,3a,4,5,5a,5b,6,7,7a,8,11,11a,11b,12,13,13a,13b-octadecahydro-1H-cyclopenta[a]chrysen-9-yl)benzoic acid] | < 100 |
